Measurements published in the NIST ThermoML archive (doi:10.1016/j.fluid.2019.05.006).
Numbers after ± are expanded uncertainties.

Details: 101.33 kPa, Liquid, Falling or rolling sphere viscometry

## C[N+](C)(C)CCO.NCC(=O)[O-] [2-hydroxy-N,N,N-trimethylethanaminium glycinate]
308.15 K
  viscosity: 84.3 ± 1.6 mPa·s
318.15 K
  viscosity: 29.4 ± 0.7 mPa·s
328.15 K
  viscosity: 14.3 ± 0.6 mPa·s
338.15 K
  viscosity: 7.2 ± 0.3 mPa·s
